Patent publication US20260083723A1, “THERAPEUTIC AGENT OR PROPHYLACTIC AGENT FOR AMYOTROPHIC LATERAL SCLEROSIS” (Toray Industries, Inc., priority 2022, published 2026)
Where a name gives a salt, the structure may show the parent alone.

Assay: In vitro radical scavenging action (DPPH method)
Conditions: not given
Experimental: The radical scavenging action of a test compound can be evaluated using an in vitro test and, for example, by a method (Antioxidants, 2019, vol. 258) using a stable radical, 1,1-diphenyl-2-picrylhydrazil (DPPH).
Radical scavenging action was evaluated using the DPPH method in the compound of Comparative Example 1, which is a tetrahydroquinoxaline derivative, and in the tetrahydroquinoline derivative (I) or a pharmaceutically acceptable salt thereof. The DPPH method was performed using an antioxidant capacity measurement kit (Dojindo Laboratories).
A test compound was dissolved in DMSO, and the resulting solution was then mixed with an assay buffer and a DPPH solution, which are included in the kit, to a total volume of 200 μL to obtain a final concentration of 10% DMSO, and the reaction was allowed to proceed. Wells added with […] ferrostatin-1, a radical scavenger, were grouped as “control,” and wells not added with test compound were grouped as “background”. The test compound was serially diluted 3-fold starting from a maximum concentration of 100 μmol/L, and the diluted test compound (1.2, 3.7, 11.1, 33.3, or 100 μmol/L) was added and allowed to react at room temperature. Thirty minutes after the reaction, the absorbance at 517 nm was measured, and the average absorbance value was calculated (N=2). The radical scavenging action of the test compound (hereinafter referred to as radical scavenging rate, %) was calculated based on Equation 2. The EC50 value of the test compound was calculated from the radical scavenging rate.
A note “no detection of radical scavenging action (N.D.),” is given to compounds with a EC50 of >100 μmol/L.

| SMILES | radical scavenging action (in words) |
| --- | --- |
| c1ccc(C2CNc3ccccc3N2)cc1 (stereo not drawn) [Comparative Example 1, 2-phenyl-1,2,3,4-tetrahydroquinoxaline, reference compound] | exhibited radical scavenging action |

Same assay, conditions: 1.2-100 μmol/L, 30 minutes at room temperature, absorbance at 517 nm

| SMILES | EC50 |
| --- | --- |
| c1ccc(C2CNc3ccccc3N2)cc1 (stereo not drawn) [Comparative Example 1, 2-phenyl-1,2,3,4-tetrahydroquinoxaline, reference compound] | 8.54 µM |
| c1ccc([C@H]2CCc3ccccc3N2)cc1 [Example 2, (R)-2-phenyl-1,2,3,4-tetrahydroquinoline] | > 100 µM |
| c1ccc([C@@H]2CCc3ccccc3N2)cc1 [Example 3, (S)-2-phenyl-1,2,3,4-tetrahydroquinoline] | > 100 µM |
| CS(=O)(=O)c1ccc(C2CCc3ccccc3N2)cc1 (stereo not drawn) [Example 16, 2-(4-(methylsulfonyl)phenyl)-1,2,3,4-tetrahydroquinoline] | > 100 µM |
| CC(=O)Nc1ccc(C2CCc3ccccc3N2)cc1 (stereo not drawn) [Example 21, N-(4-(1,2,3,4-tetrahydroquinolin-2-yl)phenyl)acetamide] | > 100 µM |
| Fc1ccc(C2CCc3ccccc3N2)cc1 (stereo not drawn) [Example 26, 2-(4-fluorophenyl)-1,2,3,4-tetrahydroquinoline] | > 100 µM |
| FC(F)(F)c1ccc(C2CCc3ccccc3N2)cc1 (stereo not drawn) [Example 29, 2-(4-(trifluoromethyl)phenyl)-1,2,3,4-tetrahydroquinoline] | > 100 µM |
| FC(F)(F)Oc1ccc(C2CCc3ccccc3N2)cc1 (stereo not drawn) [Example 31, 2-(4-(trifluoromethoxy)phenyl)-1,2,3,4-tetrahydroquinoline] | > 100 µM |
| NS(=O)(=O)c1ccc(C2CCc3ccccc3N2)cc1 (stereo not drawn) [Example 32, 4-(1,2,3,4-tetrahydroquinolin-2-yl)benzenesulfonamide] | > 100 µM |
| NS(=O)(=O)c1ccc(C2CCc3ccccc3N2)cc1 (stereo not drawn) [Example 33, 4-(1,2,3,4-tetrahydroquinolin-2-yl)benzenesulfonamide] | > 100 µM |
| NS(=O)(=O)c1ccc(C2CCc3ccccc3N2)cc1 (stereo not drawn) [Example 34, 4-(1,2,3,4-tetrahydroquinolin-2-yl)benzenesulfonamide] | > 100 µM |
| N#Cc1ccc(C2CCc3ccccc3N2)cc1 (stereo not drawn) [Example 35, 4-(1,2,3,4-tetrahydroquinolin-2-yl)benzonitrile] | > 100 µM |
| NC(=O)c1ccc(C2CCc3ccccc3N2)cc1 (stereo not drawn) [Example 36, 4-(1,2,3,4-tetrahydroquinolin-2-yl)benzamide] | > 100 µM |
| NC(=O)c1ccc(C2CCc3ccccc3N2)cc1 (stereo not drawn) [Example 37, 4-(1,2,3,4-tetrahydroquinolin-2-yl)benzamide] | > 100 µM |
| NC(=O)c1ccc(C2CCc3ccccc3N2)cc1 (stereo not drawn) [Example 38, 4-(1,2,3,4-tetrahydroquinolin-2-yl)benzamide] | > 100 µM |
| OCc1ccc2c(c1)CCC(c1ccccc1)N2 (stereo not drawn) [Example 58, (2-phenyl-1,2,3,4-tetrahydroquinolin-6-yl)methanol] | > 100 µM |
| NC(=O)Cc1ccc2c(c1)CCC(c1ccccc1)N2 (stereo not drawn) [Example 60, 2-(2-phenyl-1,2,3,4-tetrahydroquinolin-6-yl)acetamide] | > 100 µM |
| CC(C)(C)NC(=O)Cc1ccc2c(c1)CCC(c1ccccc1)N2 (stereo not drawn) [Example 61, N-(tert-butyl)-2-(2-phenyl-1,2,3,4-tetrahydroquinolin-6-yl)acetamide] | > 100 µM |
| O=C(Cc1ccc2c(c1)CCC(c1ccccc1)N2)N1CC(O)C1 (stereo not drawn) [Example 62, 1-(3-hydroxyazetidin-1-yl)-2-(2-phenyl-1,2,3,4-tetrahydroquinolin-6-yl)ethan-1-one] | > 100 µM |
| Fc1cccc2c1CCC(c1ccccc1)N2 (stereo not drawn) [Example 66, 5-fluoro-2-phenyl-1,2,3,4-tetrahydroquinoline] | > 100 µM |
| Clc1cccc2c1CCC(c1ccccc1)N2 (stereo not drawn) [Example 67, 5-chloro-2-phenyl-1,2,3,4-tetrahydroquinoline] | > 100 µM |
| Fc1ccc2c(c1)NC(c1ccccc1)CC2 (stereo not drawn) [Example 68, 7-fluoro-2-phenyl-1,2,3,4-tetrahydroquinoline] | > 100 µM |
| Clc1ccc2c(c1)NC(c1ccccc1)CC2 (stereo not drawn) [Example 69, 7-chloro-2-phenyl-1,2,3,4-tetrahydroquinoline] | > 100 µM |
| FC(F)(F)Oc1ccc2c(c1)CCC(c1ccccc1)N2 (stereo not drawn) [Example 81, 2-phenyl-6-(trifluoromethoxy)-1,2,3,4-tetrahydroquinoline] | > 100 µM |
| Fc1ccc2c(c1)CCC(c1ccccc1)N2 (stereo not drawn) [Example 82, 6-fluoro-2-phenyl-1,2,3,4-tetrahydroquinoline] | > 100 µM |

| SMILES | EC50 |
| --- | --- |
| Clc1ccc2c(c1)CCC(c1ccccc1)N2 (stereo not drawn) [Example 83, 6-chloro-2-phenyl-1,2,3,4-tetrahydroquinoline] | > 100 µM |
| Fc1cc2c(cc1F)NC(c1ccccc1)CC2 (stereo not drawn) [Example 85, 6,7-difluoro-2-phenyl-1,2,3,4-tetrahydroquinoline] | > 100 µM |
| Cc1ccc2c(c1)CCC(c1ccc(C(N)=O)cc1)N2 (stereo not drawn) [Example 99, 4-(6-methyl-1,2,3,4-tetrahydroquinolin-2-yl)benzamide] | > 100 µM |
| Cc1ccc2c(c1)NC(c1ccc(S(N)(=O)=O)cc1)CC2 (stereo not drawn) [Example 105, 4-(7-methyl-1,2,3,4-tetrahydroquinolin-2-yl)benzenesulfonamide] | > 100 µM |
| Cc1ccc2c(c1)NC(c1ccc(C(N)=O)cc1)CC2 (stereo not drawn) [Example 106, 4-(7-methyl-1,2,3,4-tetrahydroquinolin-2-yl)benzamide] | > 100 µM |
| NS(=O)(=O)c1ccc(C2CCc3cc(F)ccc3N2)cc1 (stereo not drawn) [Example 107, 4-(6-fluoro-1,2,3,4-tetrahydroquinolin-2-yl)benzenesulfonamide] | > 100 µM |
| NS(=O)(=O)c1ccc(C2CCc3cc(F)ccc3N2)cc1 (stereo not drawn) [Example 108, 4-(6-fluoro-1,2,3,4-tetrahydroquinolin-2-yl)benzenesulfonamide] | > 100 µM |
| NS(=O)(=O)c1ccc(C2CCc3cc(F)ccc3N2)cc1 (stereo not drawn) [Example 109, 4-(6-fluoro-1,2,3,4-tetrahydroquinolin-2-yl)benzenesulfonamide] | > 100 µM |
| Cc1cccc2c1CCC(c1ccc(S(N)(=O)=O)cc1)N2 (stereo not drawn) [Example 112, 4-(5-methyl-1,2,3,4-tetrahydroquinolin-2-yl)benzenesulfonamide] | > 100 µM |
| NS(=O)(=O)c1ccc(C2CCc3cc(Cl)ccc3N2)cc1 (stereo not drawn) [Example 115, 4-(6-chloro-1,2,3,4-tetrahydroquinolin-2-yl)benzenesulfonamide] | > 100 µM |
| NS(=O)(=O)c1ccc(C2CCc3cc(Cl)ccc3N2)cc1 (stereo not drawn) [Example 116, 4-(6-chloro-1,2,3,4-tetrahydroquinolin-2-yl)benzenesulfonamide] | > 100 µM |
| NS(=O)(=O)c1ccc(C2CCc3cc(Cl)ccc3N2)cc1 (stereo not drawn) [Example 117, 4-(6-chloro-1,2,3,4-tetrahydroquinolin-2-yl)benzenesulfonamide] | > 100 µM |
| NS(=O)(=O)c1ccc(C2CCc3ccc(F)cc3N2)cc1 (stereo not drawn) [Example 118, 4-(7-fluoro-1,2,3,4-tetrahydroquinolin-2-yl)benzenesulfonamide] | > 100 µM |
| Cc1ccc2c(c1)CCC(c1ccc(S(N)(=O)=O)cc1)N2 (stereo not drawn) [Example 119, 4-(6-methyl-1,2,3,4-tetrahydroquinolin-2-yl)benzenesulfonamide] | > 100 µM |
| Cc1ccc2c(c1)CCC(c1ccc(S(N)(=O)=O)cc1)N2 (stereo not drawn) [Example 120, 4-(6-methyl-1,2,3,4-tetrahydroquinolin-2-yl)benzenesulfonamide] | > 100 µM |
| NC(=O)c1ccc(C2CCc3cc(Cl)ccc3N2)cc1 (stereo not drawn) [Example 121, 4-(6-chloro-1,2,3,4-tetrahydroquinolin-2-yl)benzamide] | > 100 µM |
| NC(=O)c1ccc(C2CCc3cc(Cl)ccc3N2)cc1 (stereo not drawn) [Example 122, 4-(6-chloro-1,2,3,4-tetrahydroquinolin-2-yl)benzamide] | > 100 µM |
| NC(=O)c1ccc(C2CCc3cc(Cl)ccc3N2)cc1 (stereo not drawn) [Example 131, 4-(6-chloro-1,2,3,4-tetrahydroquinolin-2-yl)benzamide] | > 100 µM |
| NC(=O)c1ccc(C2CCc3cc(F)ccc3N2)cc1 (stereo not drawn) [Example 132, 4-(6-fluoro-1,2,3,4-tetrahydroquinolin-2-yl)benzamide] | > 100 µM |
| NS(=O)(=O)c1ccc(C2CCc3c(Cl)cccc3N2)cc1 (stereo not drawn) [Example 134, 4-(5-chloro-1,2,3,4-tetrahydroquinolin-2-yl)benzenesulfonamide] | > 100 µM |
| NS(=O)(=O)c1ccc(C2CCc3c(F)cccc3N2)cc1 (stereo not drawn) [Example 135, 4-(5-fluoro-1,2,3,4-tetrahydroquinolin-2-yl)benzenesulfonamide] | > 100 µM |
| CS(=O)(=O)Nc1ccc(C2CCc3ccccc3N2)cc1 (stereo not drawn) [Example 136, N-(4-(1,2,3,4-tetrahydroquinolin-2-yl)phenyl)methanesulfonamide] | > 100 µM |
| NC(=O)c1ccc(C2CCc3c(F)cccc3N2)cc1 (stereo not drawn) [Example 137, 4-(5-fluoro-1,2,3,4-tetrahydroquinolin-2-yl)benzamide] | > 100 µM |
| NC(=O)c1ccc(C2CCc3c(Cl)cccc3N2)cc1 (stereo not drawn) [Example 138, 4-(5-chloro-1,2,3,4-tetrahydroquinolin-2-yl)benzamide] | > 100 µM |
| O=C(Cc1ccc2c(c1)CCC(c1ccccc1)N2)N1CC(O)C1 (stereo not drawn) [Example 143, 1-(3-hydroxyazetidin-1-yl)-2-(2-phenyl-1,2,3,4-tetrahydroquinolin-6-yl)ethan-1-one hydrochloride] | > 100 µM |
